Results from ChEMBL document CHEMBL1165947, “Synthesis and antitumor activity of 2,5-bis(3'-indolyl)-furans and 3,5-bis(3'-indolyl)-isoxazoles, nortopsentin analogues” (Bioorg Med Chem, 2010).

System: P388
Test: Cytotoxicity against mouse P388 cells
Type: functional, cell-based

SMILES	IC50
Cn1c(-c2cn(C)c3cc(Br)ccc23)cnc1-c1cn(C)c2ccccc12	800 nM
Cn1c(-c2cn(C)c3cc(Br)ccc23)cnc1-c1cn(C)c2cc(Br)ccc12 [N-METHYL NORTOPSENTIN A]	800 nM
Brc1ccc2c(-c3nc(-c4c[nH]c5ccccc45)c[nH]3)c[nH]c2c1 [NORTOPSENTIN B]	4500 nM
Brc1ccc2c(-c3c[nH]c(-c4c[nH]c5cc(Br)ccc45)n3)c[nH]c2c1 [NORTOPSENTIN A]	4500 nM
